Values joined by “and” are separate entries in the source; they are usually repeats but may differ in a detail not shown here. Equal entries are not always repeated. Where two headings read alike, the source gives them in different places. Where a SMILES comes first, the peptide text is derived from it. [ ]: non-standard residue; d: D form. The star is where a group is joined. NHCH2CH2OH = OCCN*; For = O=C*
Legend:
[1] = Procedure: Second, we examined the cytotoxicity toward mammalian cancer cells and hemolytic activity of 1. […] Hemolytic activity was evaluated by monitoring hemoglobin leakage from rabbit red blood cells as a consequence of membrane damage. The concentration of 1 required to cause 10% hemoglobin leakage (HC10) was 160 nM. Thus, the P388 cytotoxicity of 1 was 28-fold more sensitive than its hemolytic activity.
Mammalian cytotoxicity assay of purified peptides.
B22 was diluted with the growth medium with 2% DMSO to various concentrations as 5-fold serial dilution.
The collected cells were resuspended into
the growth medium at 2 × 10^4 cells/mL. Aliquots of the former medium (2% DMSO, 100 µL) containing
peptides and the latter medium containing P388 cells (100 µL) were mixed in a 96-well cell culture plate
(TR5003, TrueLine). The final concentration of P388 cells and DMSO were 1 × 10^4 cells/mL and 1%,
respectively. […]
were determined by WST -1 assay. A solution of 1-methoxy PMS and WST-1 in the growth medium
(1-methoxy PMS 0.70 mg/mL in Milli-Q/WST-1 3.6 mg/mL in pH 7.4 HEPES buffer = 1/9) was added to
each well of the plate (20.0 µL/well). The cells were incubated for 4 h under atmosphere of 5% CO 2 at
37 °C. The absorbance of each well at 415 nm was measured using a Benchmark microplate reader
(Bio-Rad) or Thermo Scientifi c Multiskan GO (Thermo Fisher Scientific). The cytotoxicities of the purified
peptides were evaluated as IC 50 (nM) by means of three replicates. Sigmoidal curve fittings were performed

[2] = system: Enterococcus faecalis JCM5803
Procedure: (§1) Third, 1 was subjected to five pathogenic Gram-positive bacteria.
(§2) Evaluation of antibacterial spectra of purified peptides. The MIC assay was performed according to the Clinical and Laboratory Standards Institute protocols. The antibacterial activities of the purified peptides A1, B01–B04, B11–B13, B21, and B22 were measured using the broth microdilution method. 6 Serial dilutions of the peptides were prepared in cation adjusted Mueller Hinton Broth. Each dilution (100 µL) was dispensed to each well of the round-bottom plate to obtain final concentrations ranging from 64 µg/mL to 0.00024 µg/mL. Bacteria were grown at 37 °C overnight on Tryptic Soy Broth or Mueller Hinton Broth agar plates.
(§3) The bacterial colonies were suspended in 0.9% saline to obtain OD 625 of 0.08–0.13 using a spectrophotometer UV-1280 (Shimadzu). The resultant suspension was diluted with cation adjusted Mueller Hinton Broth (1/20). The resultant mixture (10 .0 µL) was inoculated to each well of the plates (approximately 5 × 10^4 CFU/well), mixed, and incubated at 37 °C for 18–24 h. The MIC value was determined as the minimum concentration that inhibited growth of bacteria. For Streptococcus species, cation adjusted Mueller Hinton Broth supplemented with 5% laked horse blood was used. […]

[3] = system: Listeria monocytogenes 10403S
Procedure: as §1, §2, §3

[4] = system: Streptococcus agalactiae JCM5671
Procedure: as §1, §2, §3

[5] = system: Streptococcus pneumoniae NBRC 102642
Procedure: as §1, §2, §3

[6] = system: Streptococcus pyogenes SSI-9
Procedure: as §1, §2, §3

[7] = system: MSSA1 (methicillin-susceptible Staphylococcus aureus); assay type: cell-based
Procedure: as §2, §3

[8] = Membrane disruption assay of purified peptides (carboxyfluorescein leakage); assay type: biochemical; set-up: key: % lysis; Triton X-100 = 100%, DMSO = 0%; conditions: three replicate lines
Procedure: Membrane disruption assay of purified peptides. 5(6)-Carboxyfluorescein (CF)-encapsulated large […]
through Nuclepore polycarbonate filters mounted in the mini-extruder apparatus. A solution of egg yolk phosphatidylcholine (EYPC, 22.0 mg, 28.9 µmol) in CHCl3 (225 µL) and egg yolk phosphatidylglycerol (1.2 0 […]
mM HEPES, 100 mM NaCl, 20 mM CF) by sonication. After five -times freeze-thaw cycles, the lipid […]
concentration of the resultant CF -encapsulated LUV suspension was deduced from the phosphatidylcholine concentration determined by using Phospholipid C -Test Wako. The lipid concentration of the LUV […]
as 5-fold serial dilution. The solution of peptide (2.0 µL) and the CF-encapsulated LUV suspension (200 […]
The resultant suspension was incubated at room temperature for 30 min. The fluorescence (Ex. 490 nm/Em. 517 nm) of each well was measured on Gemini EM microplate reader. Triton X-100/H2O (5/95, 3.0 µL), DMSO (2.0 µL), and the LUV suspension were mixed in each plate to determine 100% lysis. […]
was used to determine 0% lysis. The membrane disruption activities of tested peptides ( I) were normalized against 100% lysis by Triton X-100 (Imax) and 0% lysis by DMSO ( I0) according to Supplementary Equation 2 , where Ix is the fluorescence intensity.
The membrane disruption activities of the purified peptides were plotted as means of three replicates (Supplementary Figure 1).

[9] = H+/Na+ transport assay of purified peptides; conditions: for Supplementary Figure 5 dose-response value (H+/Na+ transport): three replicate lines

In the case of `CC(C)C[C@@H](NC(=O)[C@H](Cc1c[nH]c2ccccc12)NC(=O)[C@@H](CC(C)C)NC(=O)[C@H](Cc1c[nH]c2ccccc12)NC(=O)[C@@H](CC(C)C)NC(=O)[C@H](Cc1c[nH]c2ccccc12)NC(=O)[C@H](NC(=O)[C@@H](NC(=O)[C@H](NC(=O)[C@H](C)NC(=O)[C@H](NC(=O)[C@H](C)NC(=O)CNC(=O)[C@@H](NC=O)C(C)C)C(C)C)C(C)C)C(C)C)C(C)C)C(=O)N[C@@H](Cc1c[nH]c2ccccc12)C(=O)NCCO` [A1] (For-VGA[dV]A[dV]V[dV]W[dL]W[dL]W[dL]W-NHCH2CH2OH), the IC50 ([1]; Cytotoxicity IC50) is reported as 4.1 nM, the IC50 ([1]; IC50, mammalian cytotoxicity assay) is reported as 3.52 nM and the “antibacterial activity/MIC” value ([2]; E. faecalis) is reported as 0.25 µg/mL. For the same molecule, the “Antibacterial activity MIC” value ([2]; JCM5803) was 0.13 µM, the “Antibacterial activity MIC” value ([3]; 10403S) was 1.1 µM and the “antibacterial activity/MIC” value ([3]; L. monocytogenes) was 2 µg/mL. For the same molecule, the “Antibacterial activity MIC” value ([4]; JCM5671) was 0.54 µM, the “antibacterial activity/MIC” value ([4]; S. agalactiae) was 1 µg/mL and the “Antibacterial activity MIC” value ([5]; NBRC 102642) was 0.001 µM. The “antibacterial activity/MIC” value ([5]; S. pneumoniae) was 0.0019 µg/mL, the “antibacterial activity/MIC” value ([6]; S. pyogenes) was 0.015 µg/mL and the “Antibacterial activity MIC” value ([6]; SSI-9) was 0.008 µM. The “antibacterial activity/MIC” value [7] was 8 µg/mL, the “Supplementary Figure 1 dose-response value” ([8]; concentration 0.000512 nM) was 15.596 and 11.1897 and 18.8476 and the “Supplementary Figure 1 dose-response value” ([8]; concentration 0.00256 nM) was 19.0421 and 18.9023 and 11.8141. The “Supplementary Figure 1 dose-response value” ([8]; concentration 0.0128 nM) was 18.8248 and 18.451 and 13.318, the “Supplementary Figure 1 dose-response value” ([8]; concentration 0.064 nM) was 5.787 and 7.036 and 10.8676 and the “Supplementary Figure 1 dose-response value” ([8]; concentration 0.32 nM) was 6.642 and 18.6722 and 17.2971. For the same molecule, the “Supplementary Figure 1 dose-response value” ([8]; concentration 1.6 nM) was 5.416 and 5.449 and 6.466, the “Supplementary Figure 1 dose-response value” ([8]; concentration 8 nM) was 18.3076 and 19.5293 and 5.647 and the “Supplementary Figure 1 dose-response value” ([8]; concentration 40 nM) was 20.3219 and 7.57 and 17.0093. For the same molecule, the “Supplementary Figure 1 dose-response value” ([8]; concentration 200 nM) was 24.2624 and 22.7393 and 19.0922, the “Supplementary Figure 1 dose-response value” ([8]; concentration 1000 nM) was 20.1834 and 27.4358 and 26.1069 and the “Supplementary Figure 1 dose-response value” ([8]; concentration 5000 nM) was 74.0004 and 66.4045 and 47.3037. The “Supplementary Figure 5 dose-response value (H+/Na+ transport)” value ([9]; concentration 0.000512 nM) was 1.8002 and 1.763 and 1.206, the “Supplementary Figure 5 dose-response value (H+/Na+ transport)” value ([9]; concentration 0.00256 nM) was 3.307 and 4.634 and 1.407 and the “Supplementary Figure 5 dose-response value (H+/Na+ transport)” value ([9]; concentration 0.0128 nM) was 5.867 and 6.44 and 5.481. For the same molecule, the “Supplementary Figure 5 dose-response value (H+/Na+ transport)” value ([9]; concentration 0.064 nM) was 6.841 and 9.002 and 6.572, the “Supplementary Figure 5 dose-response value (H+/Na+ transport)” value ([9]; concentration 0.32 nM) was 16.8499 and 16.683 and 16.1323 and the “Supplementary Figure 5 dose-response value (H+/Na+ transport)” value ([9]; concentration 1.6 nM) was 35.8143 and 34.663 and 30.2235. The “Supplementary Figure 5 dose-response value (H+/Na+ transport)” value ([9]; concentration 8 nM) was 59.1193 and 56.2604 and 57.9939, the “Supplementary Figure 5 dose-response value (H+/Na+ transport)” value ([9]; concentration 40 nM) was 69.1281 and 68.6879 and 67.3822 and the “Supplementary Figure 5 dose-response value (H+/Na+ transport)” value ([9]; concentration 200 nM) was 71.9954 and 72.6939 and 69.0451. For the same molecule, the “Supplementary Figure 5 dose-response value (H+/Na+ transport)” value ([9]; concentration 1000 nM) was 75.1932 and 74.1998 and 72.8534, the “Supplementary Figure 5 dose-response value (H+/Na+ transport)” value ([9]; concentration 5000 nM) was 74.4116 and 69.1356 and 72.7894 and the EC50 ([9]; read-out: EC50, H+/Na+ transport assay, 1st experiment) was 1.9 nM. For the same molecule, the EC50 ([9]; read-out: EC50, H+/Na+ transport assay, 2nd experiment) was 3.5 nM, the EC50 ([9]; read-out: EC50, H+/Na+ transport assay, 3rd experiment) was 1.99 nM and the EC50 ([9]; read-out: H+/Na+ transport activity EC50, EYPC/EYPG (19:1) LUVs) was 2.5 nM. For the same molecule, the EC50 ([9]; read-out: H+/Na+ transport activity/EC50, mean ± SD of three independent experiments) was 2.46 ± 0.9 nM.

Reference: article PMC7531004, “Discovery of gramicidin A analogues with altered activities by multidimensional screening of a one-bead-one-compound library” (Nature Communications, 2020)
